Test results as given in the supplement of paper PMC10733146.

Key:
Test in all cases: viability relative to DMSO control (fraction); higher = less drug effect (more viable cells)
Conditions in all cases: 48 h
[1] = system: primary AML patient cells (S021)
In short: (§1)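 Using 384-well plates with compounds already plated at five concentrations, one well per concentration, 4 × 10^4 primary mononuclear tumour cells were added per well. Cells were Ficoll-isolated from blood or bone marrow or came from processed lymph node, fresh or cryopreserved. They were kept for 48 h at 37 °C and 5% CO2 in RPMI-1640 supplemented with penicillin/streptomycin, L-glutamine and human serum, and viability was read as CellTiter-Glo luminescence relative to the median of 16 inner DMSO wells.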

[2] = system: primary AML patient cells (S017)
In short: as §1

[3] = system: primary AML patient cells (S056)
In short: as §1

[4] = system: primary ALL patient cells (S048)
In short: as §1

[5] = system: primary AML patient cells (S055)
In short: as §1

[6] = system: primary AML patient cells (S002)
In short: as §1

[7] = system: primary AML patient cells (S072)
In short: as §1

[8] = system: primary FL patient cells (S022)
In short: as §1

[9] = system: primary CLL patient cells (S043)
In short: as §1

[10] = system: primary MCL patient cells (S068)
In short: as §1

[11] = system: primary MCL patient cells (S063)
In short: as §1

[12] = system: primary AML patient cells (S025)
In short: as §1

[13] = system: primary AML patient cells (S081)
In short: as §1

[14] = system: primary T-PLL patient cells (S008)
In short: as §1

[15] = system: primary BL patient cells (S005)
In short: as §1

[16] = system: primary AML patient cells (S009)
In short: as §1

[17] = system: primary AML patient cells (S079)
In short: as §1

[18] = system: primary AML patient cells (S012)
In short: as §1

[19] = system: primary AML patient cells (S006)
In short: as §1

CNC(=O)c1cc(Oc2ccc(NC(=O)Nc3ccc(Cl)c(C(F)(F)F)c3)cc2)ccn1 [Sorafenib]
viability ([1]; 0.024 µM): 0.995
viability ([1]; 0.12 µM): 1.09
viability ([1]; 0.6 µM): 1.07
viability ([1]; 3 µM): 1.12
viability ([1]; 15 µM): 0.888
viability ([2]; 0.024 µM): 0.955
viability ([2]; 0.12 µM): 0.988
viability ([2]; 0.6 µM): 0.935
viability ([2]; 3 µM): 1.04
viability ([2]; 15 µM): 0.927
viability ([3]; 0.024 µM): 0.642
viability ([3]; 0.12 µM): 0.488
viability ([3]; 0.6 µM): 0.443
viability ([3]; 3 µM): 0.453
viability ([3]; 15 µM): 0.374
viability ([4]; 0.024 µM): 0.874
viability ([4]; 0.12 µM): 1
viability ([4]; 0.6 µM): 0.889
viability ([4]; 3 µM): 0.894
viability ([4]; 15 µM): 1.03
viability ([5]; 0.024 µM): 0.971
viability ([5]; 0.12 µM): 1.04
viability ([5]; 0.6 µM): 1.02
viability ([5]; 3 µM): 1.08
viability ([5]; 15 µM): 1.04
viability ([6]; 0.024 µM): 0.941
viability ([6]; 0.12 µM): 1.07
viability ([6]; 0.6 µM): 1.09
viability ([6]; 3 µM): 1.29
viability ([6]; 15 µM): 0.601
viability ([7]; 0.024 µM): 1.02
viability ([7]; 0.12 µM): 1.04
viability ([7]; 0.6 µM): 0.99
viability ([7]; 3 µM): 1.04
viability ([7]; 15 µM): 1.01
viability ([8]; 0.024 µM): 1.05
viability ([8]; 0.12 µM): 1.01
viability ([8]; 0.6 µM): 1.06
viability ([8]; 3 µM): 0.999
viability ([8]; 15 µM): 1
viability ([9]; 0.024 µM): 0.938
viability ([9]; 0.12 µM): 1.05
viability ([9]; 0.6 µM): 0.94
viability ([9]; 3 µM): 1.08
viability ([9]; 15 µM): 0.858
viability ([10]; 0.024 µM): 0.919
viability ([10]; 0.12 µM): 1.03
viability ([10]; 0.6 µM): 1.03
viability ([10]; 3 µM): 1.22
viability ([10]; 15 µM): 1.66
viability ([11]; 0.024 µM): 0.98
viability ([11]; 0.12 µM): 1.02
viability ([11]; 0.6 µM): 0.973
viability ([11]; 3 µM): 1.06
viability ([11]; 15 µM): 1.02
viability ([12]; 0.024 µM): 0.988
viability ([12]; 0.12 µM): 1.02
viability ([12]; 0.6 µM): 1.06
viability ([12]; 3 µM): 1.13
viability ([12]; 15 µM): 0.813
viability ([13]; 0.024 µM): 0.918
viability ([13]; 0.12 µM): 0.958
viability ([13]; 0.6 µM): 1.03
viability ([13]; 3 µM): 0.99
viability ([13]; 15 µM): 1.06
viability ([14]; 0.024 µM): 0.955
viability ([14]; 0.12 µM): 0.997
viability ([14]; 0.6 µM): 1.02
viability ([14]; 3 µM): 0.973
viability ([14]; 15 µM): 0.948
viability ([15]; 0.024 µM): 0.839
viability ([15]; 0.12 µM): 0.905
viability ([15]; 0.6 µM): 0.92
viability ([15]; 3 µM): 0.957
viability ([15]; 15 µM): 0.885
viability ([16]; 0.024 µM): 0.947
viability ([16]; 0.12 µM): 0.828
viability ([16]; 0.6 µM): 0.869
viability ([16]; 3 µM): 0.985
viability ([16]; 15 µM): 0.906
viability ([17]; 0.024 µM): 0.99
viability ([17]; 0.12 µM): 1.02
viability ([17]; 0.6 µM): 1.04
viability ([17]; 3 µM): 1.1
viability ([17]; 15 µM): 0.791
viability ([18]; 0.024 µM): 0.958
viability ([18]; 0.12 µM): 0.991
viability ([18]; 0.6 µM): 1.05
viability ([18]; 3 µM): 1.01
viability ([18]; 15 µM): 1.09
viability ([19]; 0.024 µM): 0.709
viability ([19]; 0.12 µM): 0.508
viability ([19]; 0.6 µM): 0.413
viability ([19]; 3 µM): 0.423
viability ([19]; 15 µM): 0.378
